{
  "source": "paper PMC11887843",
  "about": "(Science Advances, 2024)",
  "key": {"caspase-11 [1]": {"target": "T1, caspase-11 (Mus musculus, UniProt P70343)", "T1 sequence (P70343 1-80 limits assumed)": "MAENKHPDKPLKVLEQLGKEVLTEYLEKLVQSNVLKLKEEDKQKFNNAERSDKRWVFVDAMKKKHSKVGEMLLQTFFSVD", "assay": "microscale thermophoresis", "assay_type": "binding"}, "[2]": {"target": "T2, AcCARD (uncharacterized CARD-containing protein) (Amphilophus citrinellus, UniProt A0A3Q0SFM2)", "T2 sequence (A0A3Q0SFM2 1-92)": "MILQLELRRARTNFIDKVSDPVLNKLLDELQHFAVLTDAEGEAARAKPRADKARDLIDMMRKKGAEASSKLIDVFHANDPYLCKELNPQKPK", "assay": "limited trypsin digestion and blue native PAGE in […] lysates", "assay_type": "cell-based"}, "caspase-11 [3]": {"target": "T1, caspase-11", "assay": "microscale thermophoresis", "assay_type": "binding", "remark": "listed apart in the source"}},
  "note": "Like-named read-outs stand apart in the source and are kept apart here.",
  "data": [
    {"smiles": "CCCCCCCCCCCCCCCC(=O)OC[C@@H](O)COP(=O)([O-])OCC[N+](C)(C)C", "note": "[16:0 LysoPC, 1-palmitoyl-2-hydroxy-sn-glycero-3-phosphocholine]", "values": [
      {"measurement": "Kd", "setting": "caspase-11 [1]", "value": "~10", "unit": "µM"}
    ]},
    {"smiles": "CCCCCCCCCCCCCCCC(=O)OC[C@H](COP(=O)([O-])OCC[N+](C)(C)C)OC(=O)CCCC(=O)O", "note": "[PGPC]", "values": [
      {"measurement": "limited trypsin digestion and blue native PAGE in 293T lysates", "setting": "[2]", "value": "we found that AcCARD binds PGPC in both native PAGE and limited trypsin digestion assays"},
      {"measurement": "Kd", "setting": "caspase-11 [3]", "value": "~15", "unit": "µM"}
    ]}
  ]
}
